The values that follow come from patent EP4644375A1, “SUBSTITUTED HYDROQUINOLINES FOR THE TREATMENT OF GLIOBLASTOMA MULTIFORME” (Molius Saglik Teknolojileri Anonim Sirketi, priority 2024, dated 2025).

A short description of series [1]: PAMPA permeability assay, gastrointestinal mimicking membrane. Particulars: 500 µM, 18 hours, 37 °C.
Experimental: Permeability assay and analyses were performed according to the manufacturer's instructions. […] After the loading of lipid solutions into the pores, all drug solutions and the permeability controls were put onto the lipid membrane in donor wells. The permeability assay was performed for 18 hours at 37 °C incubator. All samples were collected from acceptor wells after the incubation period was finished and the absorbance values were measured with equilibrium standards for normalization.
The test system of series [2] is U87-MG human glioma cell. In words: Cell proliferation analysis (MTT). Particulars: MTT; for activity at 10 µM / inhibition at 10 µM: Homo sapiens, U-87 MG, 48 h, two days. The format is cell-based.
In series [3] the test system is U138-MG human glioma cell. In words: Cell proliferation analysis (MTT). The format is cell-based. Particulars: MTT; for activity at 10 µM / inhibition at 10 µM: Homo sapiens, 48 h, two days.
A short description of series [4]: In vivo GBM rat model: body weight. To be noted: treated GBM rats compared to the GBM rats, 30 mg/kg oral, 5 days. How it is done: An in Vivo study was performed to assess the therapeutic potential of TR-G002, TR-G045, TR-G053, TR-G066, TR-G071 and TR-G091 in the GBM xenograft rat model when administered orally by gavage for five consecutive days. 152 female rats of the Sprague Dawley strain were allocated to the study. Six groups of sixteen females were given dose of 30 mg/kg of the respective target compounds. […] The study design can be seen in Fig. 11 and Table 10.
Individual body weights were manually calculated. Group mean body weights; group mean body weight changes and organ weights were also manually calculated without statistical analysis. To determine the density of positive staining from immunohistochemical and immunofluorescence staining images, five randomly selected areas were evaluated using ZEISS Zen Imaging Software. Data were statistically defined as mean and standard deviation (mean ± SD) for the percentage of the area. One-way ANOVA followed by the Tukey test was performed to compare immunoreactive cells and immune-positive stained areas with healthy controls. GraphPad Prism software was used for analysis.

Series [5] in a line: In vivo GBM rat model: haematology. How it is done: (§1) The parameters that were analysed can be seen in Table 11.
A short description of series [6]: In vivo GBM rat model: plasma chemistry. Particulars: GBM rats, 30 mg/kg oral, 5 days, plasma at necropsy. How it is done:
as §1

Series [7] is described as follows: Peripheral blood micronucleus assay. The format is in vivo, Rat. As to the method: Blood smears were made on clean microscope slides, allowed to air-dry, treated with methanol for fixation, and then stained with Giemsa (10% in 0.1 mM of sodium phosphate buffer, pH 6.8) for 10 min. After washing with PBS, the slides were examined under a light microscope. The frequencies of micronuclei (MN) were calculated by evaluating 1000 cells per animal.

Setting [8] is: GBM rats, 30 mg/kg oral, 5 days, blood at necropsy.

One may read the inhibition as the drop in the measured response relative to a control, in per cent. High values mean a response far below the control, low ones a response near the control.

For `O=C(COc1ccc2c(c1)CCC(=O)N2)N/N=C/c1ccc(F)cc1` [TR-G128, (E)-N'-(4-fluorobenzylidene)-2-((2-oxo-1,2,3,4-tetrahydroquinolin-6-yl)oxy)acetohydrazide], in series [1], the “permeability through the gastrointestinal mimicking membrane” value is given as “highly permeable”. Besides, the activity at 10 µM in series [2] and in series [3] was 68% in each case. Also, the inhibition at 10 µM in series [2] and in series [3] was 32% each time.

Turning to `Cc1ccc(F)cc1NC(=O)Oc1ccc2c(c1)CCC(=O)N2` [TR-G097, 2-oxo-1,2,3,4-tetrahydroquinolin-6-yl (5-fluoro-2-methylphenyl)carbamate], in series [1], the “permeability through the gastrointestinal mimicking membrane” value is “highly permeable”. In series [2], this molecule came in with an activity at 10 µM of 79% and an inhibition at 10 µM of 21%. In series [3], the activity at 10 µM worked out at 73% and at 10 µM the inhibition was 27%.

As to `C#CCOc1ccc2c(c1)CCC(=O)N2` [TR-G006, 6-(prop-2-yn-1-yloxy)-3,4-dihydroquinolin-2(1H)-one], the “permeability through the gastrointestinal mimicking membrane” value in series [1] is on record as “highly permeable”. Besides, the activity at 10 µM in series [2] and in series [3] was 86% each time. The inhibition at 10 µM in series [2] and in series [3] was 14% throughout.

On to `C=CCOc1ccc2c(c1)CCC(=O)N2` [TR-G014, 6-(allyloxy)-3,4-dihydroquinolin-2(1H)-one], for which, in series [1], the “permeability through the gastrointestinal mimicking membrane” value is on record as “highly permeable”. Besides, in series [2], the activity at 10 µM was 82% and the inhibition at 10 µM is 18%. In series [3], this molecule displayed an activity at 10 µM of 51% and an inhibition at 10 µM of 49%.

`Cn1nnc2c(C(N)=O)ncn2c1=O` [TMZ, Temozolomide, reference compound]: the body weight result in series [4] was “No significant change in body weight”. In series [5] (setting [8]), the HCT is listed as 48.13%, the HGB is on record as 15.13 g/dL, the MCH worked out at 18.10 pg and the MCHC was found to be 31.47 g/dL. For the same molecule, in series [5] (setting [8]), the MCV is 57.55 fL, the PLT is given as 829.67 10^9 /L, the RBC is 8.36 10^12/L and the WBC is 4.92 10^9/L. For the same molecule, the PLT levels entry in series [5] (compared to GBM rats) is “no significant changes”. Moreover, the WBC level entry in series [5] (compared to the GBM rats) was “did not cause any significant changes”. In series [6], the ALP turned out to be 128.7 IU/L, the ALT is 42.4 IU/L, the AST was 114.63 IU/L and the GLU turned out to be 311 mg/dL. Moreover, in series [6], the LDH amounted to 499.85 IU/L, the “LDL C” value was 5.12 mmol/L and the TG amounted to 111 mg/dL. Further, in series [2] (reference drugs), the “Inhibition (%)” value amounted to 20% and the “Proliferation (%)” value is 80%. Besides, in series [3] (reference drugs), the “Inhibition (%)” value worked out at 22% and the “Proliferation (%)” value was found to be 78%. In series [7] (GBM rats, 30 mg/kg oral, 5 days, 1000 cells per animal evaluated), this molecule showed an MN frequency of 14.32 ± 3.10. For the same molecule, the “MN frequency (comparison)” value in series [7] (treated GBM rats) was “highest observed MN frequency”.
